{
  "source": "patent US11895992B2",
  "about": "“Animal models of corneal ectatic diseases, methods of producing, and methods of use thereof” (priority 2014, dated 2024)",
  "key": {"[1]": {"system": "cornea of one eye of a Wistar rat", "description": "A rat model of corneal keratoconus was produced as follows. An aqueous benzene composition having a concentration of 7.0 M to 8.5 M was prepared by mixing water and benzene. The composition was then sterilized by heating the solution to 100° C. for 15 minutes. The aqueous benzene composition (10 μL) was topically applied directly to the center of the cornea of one eye of a Wistar rat by micropipetting. The rat was three months old, and benzene was applied only once."}, "[2]": {"system": "cornea of the right eye of a Wistar rat", "description": "Rat models of corneal angiogenesis were produced as follows. Aqueous benzene compositions having the desired concentration (between 3.0 M and 7.0 M) were prepared by mixing benzene and water. The aqueous composition was then sterilized by heating to 100° C. for 15 minutes. In particular, 3.0 M, 4.0 M, 5.0 M, 6.0 M, or 7.0 M aqueous benzene compositions were prepared. Then, 10 μL of each composition was topically applied to the center of the cornea of the right eye of a Wistar rat that was two to three months old. The benzene aqueous composition was allowed to absorb into the eye, and was applied only once. Because the eye has its own natural protective mechanisms, it was not necessary to wash the eye at the end of the application."}, "cornea": {"system": "cornea", "details": "compared to the amount observed when benzene is used"}, "[3]": {"system": "cornea of the right eye of a Wistar rat", "details": "for Observation in Treated Eye (Number of Rats) Angiogenesis / Observation in Treated Eye (Number of Rats) Corneal Keratoconus / Observation in Treated Eye (Number of Rats) No Change: 10 μL applied once, 5 rats treated", "description": "Rat models of corneal angiogenesis and corneal keratoconus were produced as follows. Aqueous solutions of phenol having a concentration of 0.1 M, 0.5 M, 1.0 M, 3.0 M, 5.6 M, or 8.5 M were prepared by mixing phenol and water. The solutions were then sterilized by heating to 100° C. for 15 minutes. Then, 10 μL of the sterile phenol solution was topically applied to the center of the cornea of the right eye of a Wistar rat that was two months old. Five rats were treated for each concentration of phenol tested. The phenol solution was allowed to absorb into the eye, and was applied only once. Because the eye has its own natural protective mechanisms, it was not necessary to wash the eye at the end of the application.\nHistological studies were performed after eight weeks following the application of phenol. The cornea was excised, and a piece of the corneal epithelium was stained with hematoxylin and eosin stain."}, "[4]": {"details": "7.0 M to 8.5 M aqueous benzene composition, 10 μL"}},
  "note": "Read-outs that look alike come from different tables or passages of the source.",
  "data": [
    {"smiles": "c1ccccc1", "note": "[benzene]", "values": [
      {"measurement": "time at which changes in the cornea began to occur following application", "setting": "[1]; [4]", "value": "within the first week"},
      {"measurement": "time of protrusion of the cornea following application", "setting": "[1]; [4]", "value": "within the second week"},
      {"measurement": "corneal tissue changes in addition to angiogenesis", "setting": "[1]; 7.0 M to 8.5 M aqueous benzene composition, 10 μL, applied once (FIG. 3)", "value": "marked thinning, and outward protrusion"},
      {"measurement": "severity of corneal keratoconus / endophthalmitis (intraocular infection)", "setting": "[1]; 10 μL of a 9.0 M aqueous benzene composition", "value": "so severe that the rats developed endophthalmitis"},
      {"measurement": "new blood vessel formation in the cornea", "setting": "[2]; all concentrations of benzene (3.0 M to 7.0 M, 10 μL), as early as 15 days after application", "value": "new blood vessels began to form in the cornea"},
      {"measurement": "persistence of observed growth of new blood vessels from the initial application", "setting": "[2]; single application of benzene", "value": "at least four"},
      {"measurement": "amount of new blood vessels observed in the cornea, compared with 15 days", "setting": "[2]; three weeks after application", "value": "even greater"},
      {"measurement": "amount of new blood vessels observed when higher concentrations were applied", "setting": "[2]; within 15 days of application, 3.0 M to 7.0 M", "value": "increased"}
    ]},
    {"smiles": "Oc1ccccc1", "note": "[phenol]", "values": [
      {"measurement": "fibrosis and scar tissue formation, phenol compared with benzene", "setting": "cornea", "value": "less fibrosis and scar tissue formation"},
      {"measurement": "other anatomical or inflammatory alterations besides new corneal vessels", "setting": "[3]; 3 M phenol solution, 10 μL, three weeks (FIG. 1B)", "value": "no other anatomical or inflammatory alterations were observed"},
      {"measurement": "Observation in Treated Eye (Number of Rats) Angiogenesis", "setting": "[3]; Phenol Concentration 0.1M", "value": "1 Number of Rats"},
      {"measurement": "Observation in Treated Eye (Number of Rats) Corneal Keratoconus", "setting": "[3]; Phenol Concentration 0.1M", "value": "0 Number of Rats"},
      {"measurement": "Observation in Treated Eye (Number of Rats) No Change", "setting": "[3]; Phenol Concentration 0.1M", "value": "4 Number of Rats"},
      {"measurement": "Observation in Treated Eye (Number of Rats) Angiogenesis", "setting": "[3]; Phenol Concentration 0.5M", "value": "1 Number of Rats"},
      {"measurement": "Observation in Treated Eye (Number of Rats) Corneal Keratoconus", "setting": "[3]; Phenol Concentration 0.5M", "value": "0 Number of Rats"},
      {"measurement": "Observation in Treated Eye (Number of Rats) No Change", "setting": "[3]; Phenol Concentration 0.5M", "value": "4 Number of Rats"},
      {"measurement": "Observation in Treated Eye (Number of Rats) Angiogenesis", "setting": "[3]; Phenol Concentration 1.0M", "value": "3 Number of Rats"},
      {"measurement": "Observation in Treated Eye (Number of Rats) Corneal Keratoconus", "setting": "[3]; Phenol Concentration 1.0M", "value": "0 Number of Rats"},
      {"measurement": "Observation in Treated Eye (Number of Rats) No Change", "setting": "[3]; Phenol Concentration 1.0M", "value": "7 Number of Rats"},
      {"measurement": "Observation in Treated Eye (Number of Rats) Angiogenesis", "setting": "[3]; Phenol Concentration 3.0M", "value": "4 Number of Rats"},
      {"measurement": "Observation in Treated Eye (Number of Rats) Corneal Keratoconus", "setting": "[3]; Phenol Concentration 3.0M", "value": "2 Number of Rats"},
      {"measurement": "Observation in Treated Eye (Number of Rats) No Change", "setting": "[3]; Phenol Concentration 3.0M", "value": "1 Number of Rats"},
      {"measurement": "Observation in Treated Eye (Number of Rats) Angiogenesis", "setting": "[3]; Phenol Concentration 6.5M", "value": "4 Number of Rats"},
      {"measurement": "Observation in Treated Eye (Number of Rats) Corneal Keratoconus", "setting": "[3]; Phenol Concentration 6.5M", "value": "2 Number of Rats"},
      {"measurement": "Observation in Treated Eye (Number of Rats) No Change", "setting": "[3]; Phenol Concentration 6.5M", "value": "1 Number of Rats"},
      {"measurement": "Observation in Treated Eye (Number of Rats) Angiogenesis", "setting": "[3]; Phenol Concentration 8.5M", "value": "3 Number of Rats"},
      {"measurement": "Observation in Treated Eye (Number of Rats) Corneal Keratoconus", "setting": "[3]; Phenol Concentration 8.5M", "value": "1 Number of Rats"},
      {"measurement": "Observation in Treated Eye (Number of Rats) No Change", "setting": "[3]; Phenol Concentration 8.5M", "value": "2 Number of Rats"},
      {"measurement": "period over which blood vessel growth was observed", "setting": "[3]; after single application of aqueous phenol solution", "value": "four"},
      {"measurement": "new blood vessel formation in the cornea", "setting": "[3]; all concentrations tested (0.1 M to 8.5 M), at least one of the rats in each group, one week after application", "value": "new blood vessels began to form in the cornea"},
      {"measurement": "histology of corneal epithelium, hematoxylin and eosin stain", "setting": "[3]; eight weeks after single application of 3.0 M phenol solution (10 μl), FIG. 1C", "value": "well differentiated blood vessels can be seen under the basal membrane of the corneal epithelium"},
      {"measurement": "changes associated with corneal ectasia, particularly corneal keratoconus", "setting": "[3]; higher concentrations of phenol tested (3.0 M, 5.6 M, and 8.5 M)", "value": "observed in some of the rats"},
      {"measurement": "amount of new blood vessels observed in the cornea, compared with one week", "setting": "[3]; three weeks after application (FIG. 1B, 3 M solution)", "value": "even greater"}
    ]}
  ]
}
